According to US20170226081A1, “GLUCOSE TRANSPORT INHIBITORS” (Bayer Pharma Aktiengesellschaft, priority 2014, published 2017):

Molecular target: T1, GLUT1 (Homo sapiens, UniProt P11166)
T1 construct: endogenous in cells
T1 sequence (P11166 1-492): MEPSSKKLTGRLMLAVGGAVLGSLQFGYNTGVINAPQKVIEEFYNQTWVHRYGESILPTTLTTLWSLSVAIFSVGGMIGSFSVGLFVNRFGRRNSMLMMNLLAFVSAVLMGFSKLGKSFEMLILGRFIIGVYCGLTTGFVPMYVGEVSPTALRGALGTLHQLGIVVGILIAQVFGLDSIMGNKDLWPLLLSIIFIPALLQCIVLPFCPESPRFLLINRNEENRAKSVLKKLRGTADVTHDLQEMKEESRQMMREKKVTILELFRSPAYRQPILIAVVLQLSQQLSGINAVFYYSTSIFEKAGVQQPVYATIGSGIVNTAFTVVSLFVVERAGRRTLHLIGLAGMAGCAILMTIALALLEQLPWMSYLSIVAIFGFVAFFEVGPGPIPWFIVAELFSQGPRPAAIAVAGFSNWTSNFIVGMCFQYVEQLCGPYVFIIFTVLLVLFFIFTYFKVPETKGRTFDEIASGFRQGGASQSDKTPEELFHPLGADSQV
Test: Indirect measurement of GLUT activity by quantification of intracellular ATP levels (glucose induced ATP increase)
Assay type: cell-based
Conditions: DLD1 cells; 1 mM glucose, 1 uM Rotenone, 15 min; standardized to cytochalasin B IC50 values; read-out: IC50 regarding glucose induced ATP increase (GLUT1 inhibition)
Text: It is well known that a combination of small-molecule inhibitors of mitochondrial electron transport chain and glucose catabolism synergistically suppress ATP production and impair cellular viability (Ulanovskaya et al., 2008, 2011; Liu, et al. 2001). We therefore used DLD1 or CHO-K1 cells in combination with an oxidative phosphorylation inhibitor to identify GLUT inhibitors. Cell lines were maintained in DMEM medium supplemented with 10% FCS and 1% Penicillin-Streptomycin solution and 2% Glutamax. The cells were treated with trypsin and seeded into 384 plates at a density of 4000 cells/well. The cells were then cultured overnight in glucose free media containing 1% FCS to reduce intracellular ATP levels. After 24 h the cells were incubated at 37° C. containing the appropriate glucose or in case of GLUT2 fructose concentration (1 mM and 30 mM respectively) with or without compounds and 1 uM Rotenone for 15 min. The CellTiter-Glo® Luminescent Cell Viability Assay from Promega was then used to measure ATP levels. Compounds able to reduce the ATP Levels within 15 min of glucose application were considered to be glucose uptake inhibitors.

Compound | IC50
Cc1nn(Cc2ccn(C)n2)cc1NC(=O)c1cc(C(F)(F)F)nc2ccc(Br)cc12 [Example 73, 6-bromo-N-{3-methyl-1-[(1-methyl-1H-pyrazol-3-yl)methyl]-1H-pyrazol-4-yl}-2-(trifluoromethyl)quinoline-4-carboxamide] | 172 nM
Cc1cc(Cn2cc(NC(=O)c3cc(C(F)(F)F)nc4ccc(Br)cc34)c(C)n2)no1 [Example 71, 6-bromo-N-{3-methyl-1-[(5-methyl-1,2-oxazol-3-yl)methyl]-1H-pyrazol-4-yl}-2-(trifluoromethyl)quinoline-4-carboxamide] | 294 nM
CC(C)c1nn(Cc2ccc(C#N)cc2)cc1NC(=O)c1cc(C(N)=O)nc2cc(F)ccc12 [Example 62, N^4-[1-(4-cyanobenzyl)-3-isopropyl-1H-pyrazol-4-yl]-7-fluoroquinoline-2,4-dicarboxamide] | 120 nM
CCS(=O)(=O)N1CCC(Cn2cc(NC(=O)c3cc(C(N)=O)nc4ccccc34)c(C)n2)CC1 [Example 72, N^4-(1-{[1-(ethylsulfonyl)piperidin-4-yl]methyl}-3-methyl-1H-pyrazol-4-yl)quinoline-2,4-dicarboxamide] | 247 nM
COC(=O)c1nn(Cc2ccc(F)cc2)cc1NC(=O)c1cc(C(F)(F)F)nc2ccc(Br)cc12 [Example 17, methyl 4-({[6-bromo-2-(trifluoromethyl)quinolin-4-yl]carbonyl}amino)-1-(4-fluorobenzyl)-1H-pyrazole-3-carboxylate] | 64 nM
CNC(=O)c1nn(Cc2ccc(C#N)cc2)cc1NC(=O)c1cc(C(F)(F)F)nc2ccc(Br)cc12 [Example 27, 6-bromo-N-[1-(4-cyanobenzyl)-3-(methylcarbamoyl)-1H-pyrazol-4-yl]-2-(trifluoromethyl)quinoline-4-carboxamide] | 893 nM
Cc1nn(Cc2ccccc2C#N)cc1NC(=O)c1cc(C(N)=O)nc2ccccc12 [Example 16, N^4-[1-(2-cyanobenzyl)-3-methyl-1H-pyrazol-4-yl]quinoline-2,4-dicarboxamide] | 137 nM
COc1ccc(Cn2cc(NC(=O)c3cc(C(N)=O)nc4cc(F)ccc34)c(C(F)(F)F)n2)cc1 [Example 50, 7-fluoro-N^4-[1-(4-methoxybenzyl)-3-(trifluoromethyl)-1H-pyrazol-4-yl]quinoline-2,4-dicarboxamide] | 3.9 nM
O=C(Nc1cn(Cc2ccc(F)cc2)nc1C(F)(F)F)c1cc(C(F)(F)F)nc2ccc(Br)cc12 [Example 31, 6-bromo-N-[1-(4-fluorobenzyl)-3-(trifluoromethyl)-1H-pyrazol-4-yl]-2-(trifluoromethyl)quinoline-4-carboxamide] | 1180 nM
CN(C)C(=O)c1nn(Cc2ccc(C#N)cc2)cc1NC(=O)c1cc(C(F)(F)F)nc2ccc(Br)cc12 [Example 29, 6-bromo-N-[1-(4-cyanobenzyl)-3-(dimethylcarbamoyl)-1H-pyrazol-4-yl]-2-(trifluoromethyl)quinoline-4-carboxamide] | 1700 nM
O=C(O)c1nn(Cc2ccc(F)cc2)cc1NC(=O)c1cc(C(F)(F)F)nc2ccc(Br)cc12 [Example 18, 4-({[6-bromo-2-(trifluoromethyl)quinolin-4-yl]carbonyl}amino)-1-(4-fluorobenzyl)-1H-pyrazole-3-carboxylic acid] | 6.5 nM
Cc1nn(Cc2ccn(C)n2)cc1NC(=O)c1cc(C(N)=O)nc2ccccc12 [Example 63, N^4-{3-methyl-1-[(1-methyl-1H-pyrazol-3-yl)methyl]-1H-pyrazol-4-yl}quinoline-2,4-dicarboxamide] | 190 nM
CCc1nn(Cc2ccc(C#N)cc2)cc1NC(=O)c1cc(C(N)=O)nc2cc(F)ccc12 [Example 59, N^4-[1-(4-cyanobenzyl)-3-ethyl-1H-pyrazol-4-yl]-7-fluoroquinoline-2,4-dicarboxamide] | 34 nM
COc1ccc(Cn2cc(NC(=O)c3cc(OC)nc4ccccc34)c(C(F)(F)F)n2)cc1 [Example 48, 2-methoxy-N-[1-(4-methoxybenzyl)-3-(trifluoromethyl)-1H-pyrazol-4-yl]quinoline-4-carboxamide] | 193 nM
CNC(=O)c1nn(Cc2ccc(F)cc2)cc1NC(=O)c1cc(C(F)(F)F)nc2ccc(Br)cc12 [Example 22, 6-bromo-N-[1-(4-fluorobenzyl)-3-(methylcarbamoyl)-1H-pyrazol-4-yl]-2-(trifluoromethyl)quinoline-4-carboxamide] | 20100 nM
Cc1nn(Cc2ccccc2C#N)cc1NC(=O)c1cc(C(F)(F)F)nc2ccc(Br)cc12 [Example 14, 6-bromo-N-[1-(2-cyanobenzyl)-3-methyl-1H-pyrazol-4-yl]-2-(trifluoromethyl)quinoline-4-carboxamide] | 97 nM
COc1ccc(Cn2cc(NC(=O)c3cc(C(F)(F)F)nc4ccc(Br)cc34)c(C(F)(F)F)n2)cc1 [Example 47, 6-bromo-N-[1-(4-methoxybenzyl)-3-(trifluoromethyl)-1H-pyrazol-4-yl]-2-(trifluoromethyl)quinoline-4-carboxamide] | 138 nM
CCc1noc(Cn2cc(NC(=O)c3cc(C(N)=O)nc4ccccc34)c(C)n2)n1 [Example 66, N^4-{1-[(3-ethyl-1,2,4-oxadiazol-5-yl)methyl]-3-methyl-1H-pyrazol-4-yl}quinoline-2,4-dicarboxamide] | 430 nM
CS(=O)(=O)c1ccc(Cn2cc(NC(=O)c3cc(C(F)(F)F)nc4ccc(Br)cc34)c(C(F)(F)F)n2)cc1 [Example 43, 6-bromo-N-{1-[4-(methylsulfonyl)benzyl]-3-(trifluoromethyl)-1H-pyrazol-4-yl}-2-(trifluoromethyl)quinoline-4-carboxamide] | 440 nM
COc1ccc(Cn2cc(NC(=O)c3cc(C(F)(F)F)nc4ccc(Br)cc34)c(C)n2)cc1 [Example 12, 6-bromo-N-[1-(4-methoxybenzyl)-3-methyl-1H-pyrazol-4-yl]-2-(trifluoromethyl)quinoline-4-carboxamide] | 29 nM
Cc1nn(Cc2ccc(F)cc2)cc1NC(=O)c1cc(C(F)(F)F)nc2ccc(Br)cc12 [Example 4, 6-bromo-N-[1-(4-fluorobenzyl)-3-methyl-1H-pyrazol-4-yl]-2-(trifluoromethyl)quinoline-4-carboxamide] | 111 nM
Cc1nn(Cc2ccc(F)cc2)cc1NC(=O)c1cc(C(N)=O)nc2ccccc12 [Example 5, N^4-[1-(4-fluorobenzyl)-3-methyl-1H-pyrazol-4-yl]quinoline-2,4-dicarboxamide] | 15 nM
Cc1nn(Cc2ccc(C#N)cc2)cc1NC(=O)c1cc(C(N)=O)nc2cc(F)ccc12 [Example 52, N^4-[1-(4-cyanobenzyl)-3-methyl-1H-pyrazol-4-yl]-7-fluoroquinoline-2,4-dicarboxamide] | 3.1 nM
COc1cc(C(=O)Nc2cn(Cc3ccccc3C#N)nc2C)c2ccccc2n1 [Example 15, N-[1-(2-cyanobenzyl)-3-methyl-1H-pyrazol-4-yl]-2-methoxyquinoline-4-carboxamide] | 116 nM
CN(C)C(=O)c1nn(Cc2ccc(F)cc2)cc1NC(=O)c1cc(C(F)(F)F)nc2ccc(Br)cc12 [Example 19, 6-bromo-N-[3-(dimethylcarbamoyl)-1-(4-fluorobenzyl)-1H-pyrazol-4-yl]-2-(trifluoromethyl)quinoline-4-carboxamide] | 20 nM
Cc1nn(Cc2ccc(F)cc2)cc1NC(=O)c1cc(C(F)(F)F)nc2cc(F)c(F)cc12 [Example 2, 6,7-difluoro-N-[1-(4-fluorobenzyl)-3-methyl-1H-pyrazol-4-yl]-2-(trifluoromethyl)quinoline-4-carboxamide] | 505 nM
Cc1nn(Cc2ccc(C#N)cc2)cc1NC(=O)c1cc(C2CC2)nc2ccc(Br)cc12 [Example 51, 6-bromo-N-[1-(4-cyanobenzyl)-3-methyl-1H-pyrazol-4-yl]-2-cyclopropylquinoline-4-carboxamide] | 5.2 nM
COc1cc(C(=O)Nc2cn(Cc3ccc(C#N)cc3)nc2C(F)(F)F)c2ccccc2n1 [Example 37, N-[1-(4-cyanobenzyl)-3-(trifluoromethyl)-1H-pyrazol-4-yl]-2-methoxyquinoline-4-carboxamide] | 179 nM
CCS(=O)(=O)N1CCC(Cn2cc(NC(=O)c3cc(C(F)(F)F)nc4ccc(Br)cc34)c(C)n2)CC1 [Example 67, 6-bromo-N-(1-{[1-(ethylsulfonyl)piperidin-4-yl]methyl}-3-methyl-1H-pyrazol-4-yl)-2-(trifluoromethyl)quinoline-4-carboxamide] | 665 nM
COc1cc(C(=O)Nc2cn(Cc3ccc(C#N)cc3)nc2C)c2ccccc2n1 [Example 10, N-[1-(4-cyanobenzyl)-3-methyl-1H-pyrazol-4-yl]-2-methoxyquinoline-4-carboxamide] | 79 nM
